Measured values: patent US7417156B2, “Orally active, antimalarial, anticancer, artemisinin-derived trioxane dimers” (Johns Hopkins University, priority 2002, dated 2008)
Read-outs that look alike come from different tables or passages of the source.

Tests used:
[1] = tested on: RPMI-8226; assay: NCI 60 cell line panel screen (SRB); assay type: cell-based, human
[2] = tested on: SF-268; assay: NCI 60 cell line panel screen (SRB); assay type: cell-based, human
[3] = tested on: COLO 205; assay: NCI 60 cell line panel screen (SRB); assay type: cell-based, human
[4] = tested on: MDA-MB-435; assay: NCI 60 cell line panel screen (SRB); assay type: cell-based, human
[5] = tested on: chloroquine-sensitive P. falciparum (NF54); assay: Antimalarial activity in vitro, [3H]hypoxanthine incorporation; assay type: cell-based
[6] = tested on: CAKI-1; assay: NCI 60 cell line panel screen (SRB); assay type: cell-based, human
[7] = tested on: M14; assay: NCI 60 cell line panel screen (SRB); assay type: cell-based, human
[8] = tested on: HCT-15; assay: NCI 60 cell line panel screen (SRB); assay type: cell-based, human
[9] = tested on: SK-MEL-28; assay: NCI 60 cell line panel screen (SRB); assay type: cell-based, human
[10] = tested on: UACC-257; assay: NCI 60 cell line panel screen (SRB); assay type: cell-based, human
[11] = tested on: HCT-116; assay: NCI 60 cell line panel screen (SRB); assay type: cell-based, human
[12] = tested on: MCF7; assay: NCI 60 cell line panel screen (SRB); assay type: cell-based, human
[13] = tested on: 786-0; assay: NCI 60 cell line panel screen (SRB); assay type: cell-based, human
[14] = tested on: A549/ATCC; assay: NCI 60 cell line panel screen (SRB); assay type: cell-based, human
[15] = tested on: NCI-H460; assay: NCI 60 cell line panel screen (SRB); assay type: cell-based, human
[16] = tested on: SK-OV-3; assay: NCI 60 cell line panel screen (SRB); assay type: cell-based, human
[17] = tested on: MDA-MB231/ATCC; assay: NCI 60 cell line panel screen (SRB); assay type: cell-based, human
[18] = tested on: NCI/ADR-RES; assay: NCI 60 cell line panel screen (SRB); assay type: cell-based, human
[19] = tested on: MALME-3M; assay: NCI 60 cell line panel screen (SRB); assay type: cell-based, human
[20] = tested on: ACHN; assay: NCI 60 cell line panel screen (SRB); assay type: cell-based, human
[21] = tested on: EKVX; assay: NCI 60 cell line panel screen (SRB); assay type: cell-based, human
[22] = tested on: HOP-62; assay: NCI 60 cell line panel screen (SRB); assay type: cell-based, human; conditions: HOP-62 (Non-Small Cell Lung Cancer)
[23] = tested on: NCI-H522; assay: NCI 60 cell line panel screen (SRB); assay type: cell-based, human

With `CC1CCC2C(C)C(CC(COC(=O)c3cc[n+]([O-])cc3)CC3OC4OC5(C)CCC6C(C)CCC(C3C)C46OO5)OC3OC4(C)CCC1C32OO4` (stereo not drawn) [Compound 13, bis-trioxane primary alcohol isonicotinate N-oxide] the Log10GI50 ([1]; Leukemia, RPMI-8226) was <−8.30, the Log10LC50 ([1]; RPMI-8226 (Leukemia), LC50: PG=−50) was >−4.30 log10M and the Log10TGI50 ([1]; RPMI-8226 (Leukemia), TGI: PG=0) was >−4.30 log10M. The Log10GI50 ([2]; CNS Cancer, SF-268) was −5.29, the Log10LC50 ([2]; SF-268 (CNS Cancer), LC50: PG=−50) was −4.31 log10M and the Log10TGI50 ([2]; SF-268 (CNS Cancer), TGI: PG=0) was −4.80 log10M. For the same molecule, the Log10LC50 ([3]; COLO 205 (Colon Cancer), LC50: PG=−50) was >−4.30 log10M, the Log10TGI50 ([3]; COLO 205 (Colon Cancer), TGI: PG=0) was >−4.30 log10M and the Log10GI50 ([3]; Colon Cancer, COLO 205) was <−8.30. For the same molecule, the Log10GI50 ([4]; Breast Cancer, MDA-MB-435) was −7.62, the Log10LC50 ([4]; MDA-MB-435 (Breast Cancer), LC50: PG=−50) was −4.46 log10M and the Log10TGI50 ([4]; MDA-MB-435 (Breast Cancer), TGI: PG=0) was −4.94 log10M. For the same molecule, the IC50 [5] was “sub-nanomolar”, the IC50 ([5]; Table I, NF54 strain, read-out: IC50) was 0.53 nM and the Log10LC50 ([6]; CAKI-1 (Renal Cancer), LC50: PG=−50) was −4.66 log10M. The Log10TGI50 ([6]; CAKI-1 (Renal Cancer), TGI: PG=0) was −5.11 log10M, the Log10GI50 ([6]; Renal Cancer, CAKI-1) was −7.36 and the Log10LC50 ([7]; M14 (Melanoma), LC50: PG=−50) was >−4.30 log10M. For the same molecule, the Log10TGI50 ([7]; M-14 (Melanoma), TGI: PG=0) was −4.75 log10M, the Log10GI50 ([7]; Melanoma, M14) was −5.81 and the Log10GI50 ([8]; Colon Cancer, HCT-15) was <−8.30. It also gave a Log10LC50 ([8]; HCT-15 (Colon Cancer), LC50: PG=−50) of −4.81 log10M, a Log10TGI50 ([8]; HCT-15 (Colon Cancer), TGI: PG=0) of −8.19 log10M and a Log10GI50 ([9]; Melanoma, SK-MEL-28) of −5.13. For the same molecule, the Log10LC50 ([9]; SK-MEL-28 (Melanoma), LC50: PG=−50) was −4.34 log10M, the Log10TGI50 ([9]; SK-MEL-28 (Melanoma), TGI: PG=0) was −4.73 log10M and the Log10GI50 ([10]; Melanoma, UACC-257) was −5.15. For the same molecule, the Log10LC50 ([10]; UACC-257 (Melanoma), LC50: PG=−50) was >−4.30 log10M, the Log10TGI50 ([10]; UACC-257 (Melanoma), TGI: PG=0) was −4.65 log10M and the Log10GI50 ([11]; Colon Cancer, HCT-116) was <−8.30. For the same molecule, the Log10LC50 ([11]; HCT-116 (Colon Cancer), LC50: PG=−50) was >−4.30 log10M, the Log10TGI50 ([11]; HCT-116 (Colon Cancer), TGI: PG=0) was −5.06 log10M and the Log10GI50 ([12]; Breast Cancer, MCF7) was <−8.30. The Log10LC50 ([12]; MCF7 (Breast Cancer), LC50: PG=−50) was −4.44 log10M, the Log10TGI50 ([12]; MCF7 (Breast Cancer), TGI: PG=0) was −5.03 log10M and the Log10LC50 ([13]; 786-0 (Renal Cancer), LC50: PG=−50) was −4.43 log10M. For the same molecule, the Log10TGI50 ([13]; 786-0 (Renal Cancer), TGI: PG=0) was −4.94 log10M, the Log10GI50 ([13]; Renal Cancer, 786-0) was −7.81 and the Log10LC50 ([14]; A549/ATCC (Non-Small Cell Lung Cancer), LC50: PG=−50) was >−4.30 log10M. The Log10TGI50 ([14]; A549/ATCC (Non-Small Cell Lung Cancer), TGI: PG=0) was −4.61 log10M, the Log10GI50 ([14]; Non-Small Cell Lung Cancer, A549/ATCC) was −5.98 and the Log10LC50 ([15]; NCI-H460 (Non-Small Cell Lung Cancer), LC50: PG=−50) was −4.36 log10M. The Log10TGI50 ([15]; NCI-H460 (Non-Small Cell Lung Cancer), TGI: PG=0) was −4.92 log10M, the Log10GI50 ([15]; Non-Small Cell Lung Cancer, NCI-H460) was <−8.30 and the Log10GI50 ([16]; Ovarian Cancer, SK-OV-3) was −5.13. The Log10LC50 ([16]; SK-OV-3 (Ovarian Cancer), LC50: PG=−50) was −4.31 log10M, the Log10TGI50 ([16]; SK-OV-3 (Ovarian Cancer), TGI: PG=0) was −4.72 log10M and the Log10GI50 ([17]; Breast Cancer, MDA-MB231/ATCC) was −7.64. The Log10LC50 ([17]; MDA-MB231/ATCC (Breast Cancer), LC50: PG=−50) was −4.77 log10M, the Log10TGI50 ([17]; MDA-MB231/ATCC (Breast Cancer), TGI: PG=0) was −6.32 log10M and the Log10GI50 ([18]; Breast Cancer, NCI/ADR-RES) was −7.60. It also gave a Log10LC50 ([18]; NCI/ADR-RES (Breast Cancer), LC50: PG=−50) of −4.65 log10M, a Log10TGI50 ([18]; NCI/ADR-RES (Breast Cancer), TGI: PG=0) of −5.18 log10M and a Log10LC50 ([19]; MALME-3M (Melanoma), LC50: PG=−50) of −4.66 log10M. For the same molecule, the Log10TGI50 ([19]; MALME-3M (Melanoma), TGI: PG=0) was <−8.30 log10M, the Log10GI50 ([19]; Melanoma, MALME-3M) was <−8.30 and the Log10LC50 ([20]; ACHN (Renal Cancer), LC50: PG=−50) was −4.79 log10M. The Log10TGI50 ([20]; ACHN (Renal Cancer), TGI: PG=0) was −6.57 log10M, the Log10GI50 ([20]; Renal Cancer, ACHN) was <−8.30 and the Log10LC50 ([21]; EKVX (Non-Small Cell Lung Cancer), LC50: PG=−50) was −4.59 log10M. For the same molecule, the Log10TGI50 ([21]; EKVX (Non-Small Cell Lung Cancer), TGI: PG=0) was −5.08 log10M, the Log10GI50 ([21]; Non-Small Cell Lung Cancer, EKVX) was −8.19 and the Log10LC50 ([22]; LC50: PG=−50) was −4.54 log10M. The Log10TGI50 ([22]; TGI: PG=0) was −4.91 log10M, the Log10TGI50 ([23]; NCI-H522 (Non-Small Cell Lung Cancer), TGI: PG=0) was −4.60 log10M and the Log10LC50 ([23]; NCI-H-522 (Non-Small Cell Lung Cancer), LC50: PG=−50) was >−4.30 log10M.
